Structures can show the parent of a compound that is named as a salt. Where two headings read alike, the source gives them in different places.
Assay: Rat oral pharmacokinetics (plasma eicosapentaenoic acid after oral gavage)
Type: in vivo
Details: Sprague-Dawley rats, oral gavage 40 mg/kg in 0.5% carboxymethyl cellulose, analyte EPA in plasma, mean of 6 rats
Procedure: Oral pharmacokinetic parameters of piperazine di-eicosapentaenoate, prepared by the procedure described in Example 2, were determined in Sprague-Dawley rats. Piperazine di-eicosapentaenoate was administered by oral gavage as an aqueous solution in 0.5% carboxymethyl cellulose to 6 Sprague-Dawley rats, 3 males and 3 females. Rats were dosed at 40 mg/kg. Blood samples were obtained from each rat by jugular vein catheter. […] Blood samples were centrifuged to separate red blood cells and the resulting plasma samples were analyzed for eicosapentaenoic acid. Calculated pharmacokinetic parameters shown below in Table 1 are mean values from 6 rats. […] Rats were dosed at 40 mg/kg. Blood samples were obtained from each rat by jugular vein catheter. […] Blood samples were centrifuged to separate red blood cells and the resulting plasma samples were analyzed for eicosapentaenoic acid. Calculated pharmacokinetic parameters shown below (Table 2) are mean values from 6 rats.

## CC/C=C\C/C=C\C/C=C\C/C=C\C/C=C\CCCC(=O)O [Piperazine di-eicosapentaenoate, Bis[(5Z,8Z,11Z,14Z,17Z)-icosa-5,8,11,14,17-pentaenoatel Piperazine Salt]
Both sexes, rat, 0-24 h
  AUC(0-t): 135 µg·h/mL
Both sexes, rat, read-out: Cmax
  Cmax: 28200 ng/mL
Both sexes, rat, read-out: Tmax
  Tmax: 1 h

## CC/C=C\C/C=C\C/C=C\C/C=C\C/C=C\CCCC(=O)O.CC/C=C\C/C=C\C/C=C\C/C=C\C/C=C\CCCC(=O)O.NCCN [Ethylene diamine di-eicosapentaenoate, Ethane-1,2-diaminium di[(5Z,8Z,11Z,14Z,17Z)-icosa-5,8,11,14,17-pentaenoate]]
0-24 h
  AUC (0-24): 275.29 µg·h/mL
  Cmax: 18370 ng/mL
  Tmax: 2.0 h
